Source: PMC5797708 (SLAS discovery : advancing life sciences R & D, 2017)
Where two headings read alike, the source gives them in different places.

How the values were obtained:
pre-miR-21 [1] = test: cat-ELCCA for Dicer-mediated pre-miRNA maturation; type: biochemical; conditions: for hit in HTS for inhibition of Dicer-mediated pre-miR-21 maturation: primary and confirmation screens at 25 µM, CRCs from 3.3 to 120 µM
pre-miR-21 [2] = conditions: previously shown; cited from earlier work

SMILES | hit in HTS for inhibition of Dicer-mediated pre-miR-21 maturation (pre-miR-21 [1]) | also measured
C=C1c2c(Cl)ccc(O)c2C(=O)C2=C(O)[C@]3(O)C(=O)C(C(N)=O)=C(O)[C@@H](N(C)C)[C@@H]3[C@@H](O)[C@H]12 [meclocycline] | emerged as hits | 
NC[C@H]1O[C@H](O[C@H]2[C@H](O)[C@@H](O[C@H]3O[C@H](CO)[C@@H](O)[C@H](N)[C@H]3O)[C@H](N)C[C@@H]2N)[C@H](O)[C@@H](O)[C@@H]1O [kanamycin] |  | inhibition of Dicer-mediated pre-miR-21 maturation (pre-miR-21 [1]; data not shown): do not inhibit
C=C1c2cccc(O)c2C(=O)C2=C(O)[C@]3(O)C(=O)C(C(N)=O)=C(O)[C@@H](N(C)C)[C@@H]3[C@@H](O)[C@H]12 [methacycline] | emerged as hits | 
CN(C)c1ccc(O)c2c1C[C@H]1C[C@H]3[C@H](N(C)C)C(O)=C(C(N)=O)C(=O)[C@@]3(O)C(O)=C1C2=O [minocycline] | emerged as hits | 
[H]/N=C(/N)N[C@H]1[C@H](O)[C@@H](O)[C@H](O[C@@H]2O[C@@H](C)[C@](O)(C=O)[C@H]2O[C@@H]2O[C@@H](CO)[C@H](O)[C@@H](O)[C@@H]2NC)[C@@H](N/C(N)=N\[H])[C@@H]1O [streptomycin] |  | inhibition of Dicer-mediated pre-miR-21 maturation (pre-miR-21 [2]): do not inhibit
